Test results reported in US9957271B2, “Substituted bicyclic aza-heterocycles and analogues as sirtuin modulators” (GlaxoSmithKline, LLC, priority 2012, dated 2018).
Where two headings read alike, the source gives them in different places.

Molecular target: T1, SIRT1 (Homo sapiens, UniProt Q96EB6)
T1 sequence (Q96EB6 1-747): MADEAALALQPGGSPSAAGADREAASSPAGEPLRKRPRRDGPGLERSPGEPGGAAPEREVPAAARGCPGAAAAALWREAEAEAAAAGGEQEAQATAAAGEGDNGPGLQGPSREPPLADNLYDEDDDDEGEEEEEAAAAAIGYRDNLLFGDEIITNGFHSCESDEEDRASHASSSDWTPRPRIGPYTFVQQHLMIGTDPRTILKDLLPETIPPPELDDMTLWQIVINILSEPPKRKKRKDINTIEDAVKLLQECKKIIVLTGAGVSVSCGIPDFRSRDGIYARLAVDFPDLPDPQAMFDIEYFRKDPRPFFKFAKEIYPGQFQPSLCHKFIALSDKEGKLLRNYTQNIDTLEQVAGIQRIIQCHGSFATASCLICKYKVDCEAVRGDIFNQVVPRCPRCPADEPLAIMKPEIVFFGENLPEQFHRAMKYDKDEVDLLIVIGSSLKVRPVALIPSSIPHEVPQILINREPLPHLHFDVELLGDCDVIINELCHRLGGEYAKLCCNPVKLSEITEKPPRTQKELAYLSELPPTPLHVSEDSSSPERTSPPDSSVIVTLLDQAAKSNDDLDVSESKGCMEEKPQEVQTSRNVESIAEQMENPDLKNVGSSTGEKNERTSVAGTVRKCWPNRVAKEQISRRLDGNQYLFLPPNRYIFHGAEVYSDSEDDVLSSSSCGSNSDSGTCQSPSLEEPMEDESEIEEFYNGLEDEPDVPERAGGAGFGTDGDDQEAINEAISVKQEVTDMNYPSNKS
Assay: Trp mass spectrometry assay of SIRT1 activity
Assay type: biochemical
Conditions: for Trp EC1.5 (μM): concentration giving 150% activation of SIRT1; for Emax: read-out: Trp % Fold Act
Text: Mass spectrometry based assays were used to identify modulators of SIRT1 activity. The TAMRA based assay utilized a peptide having 20 amino acid residues as follows: Ac-EE-K(biotin)-[…](Ac)NleSTEG-K(5TMR)-EE-NH2 (SEQ ID NO: 1), wherein K(Ac) is an acetylated lysine residue and Nle is a norleucine. The peptide was labeled with the fluorophore 5TMR (excitation 540 nm/emission 580 nm) at the C-terminus. The sequence of the peptide substrate was based on p53 with several modifications. In addition, the methionine residue naturally present in the sequence was replaced with the norleucine because the methionine may be susceptible to oxidation during synthesis and purification. The Trp based assay utilized a peptide having an amino acid residues as follows: Ac-R-H-K-K(Ac)-W-NH2 (SEQ ID NO: 2).
The Trp mass spectrometry assay was conducted as follows. 0.5 μM peptide substrate and 120 μM βNAD^+ were incubated with 10 nM SIRT1 for 25 minutes at 25° C. in a reaction buffer (50 mM HEPES pH 7.5, […], 1 mM DTT, 0.05% BSA). The SIRT1 protein was obtained by cloning the SirT1 gene into a T7-promoter containing vector, which was then expressed in BL21(DE3) bacterial cells and purified as described in further detail below. Test compound was added at varying concentrations to this reaction mixture and the resulting reactions were monitored. After the 25 minute incubation with SIRT1, 10 μL of 10% formic acid was added to stop the reaction. The resulting reactions were sealed and frozen for later mass spec analysis. The relative SIRT1 activity was then determined by measuring the amount of O-acetyl-ADP-ribose (OAADPR) formed (or, alternatively, the amount of deacetylated Trp peptide generated) by the NAD-dependent sirtuin deacetylation reaction in the presence of varying concentrations of the test compound versus control reactions lacking the test compound. The degree to which the test agent activated deacetylation by SIRT1 was expressed as EC1.5 (i.e., the concentration of compound required to increase SIRT1 activity by 50% over the control lacking test compound), and Percent Maximum Activation (i.e., the maximum activity relative to control (100%) obtained for the test compound).
A control for inhibition of sirtuin activity was conducted by adding 1 μL of 500 mM nicotinamide as a negative control at the start of the reaction (e.g., permits determination of maximum sirtuin inhibition). A control for activation of sirtuin activity was conducted using 10 nM of sirtuin protein, with 1 μL of DMSO in place of compound, to determine the amount of deacetylation of the substrate at a given time point within the linear range of the assay. This time point was the same as that used for test compounds and, within the linear range, the endpoint represents a change in velocity.
For the above assay, SIRT1 protein was expressed and purified as follows. The SirT1 gene was cloned into a T7-promoter containing vector and transformed into BL21(DE3). The protein was expressed by induction with 1 mM IPTG as an N-terminal His-tag fusion protein at 18° C. overnight and harvested at 30,000×g. Cells were lysed with lysozyme in lysis buffer (50 mM Tris-HCl, 2 mM Tris[2-carboxyethyl]phosphine (TCEP), 10 μM ZnCl2, 200 mM NaCl) and further treated with sonication for […] for complete lysis. The protein was purified over a Ni-NTA column (Amersham) and fractions containing pure protein were pooled, concentrated and run over a sizing column (Sephadex S200 26/60 global). The peak containing soluble protein was collected and run on an Ion-exchange column (MonoQ). Gradient elution (200 mM-500 mM NaCl) yielded pure protein. This protein was concentrated and dialyzed against dialysis buffer (20 mM Tris-HCl, 2 mM TCEP) overnight. The protein was aliquoted and frozen at −80° C. until further use.

[1] = Trp assay, percent maximum fold activation
[2] = percent maximum fold activation of SIRT1, Trp peptide substrate

| Trp EC1.5 (μM) (Trp assay) | Emax [1] [%] | Emax [2] [%] | SMILES |
| --- | --- | --- | --- |
| B (EC1.5 1-25 μM) | ≥ 350 |  | O=C(Nc1cccnn1)c1cnc2ccc(N3CCC(F)(F)C3)nn12 [Compound 904] |
|  |  | < 350 | C[C@H]1CCCN1c1ccc2ncc(C(=O)Nc3cnccn3)n2n1 [Compound 1054] |
|  | ≥ 350 |  | Cc1nc2ccc(N3CCC(F)(F)C3)nn2c1C(=O)Nc1cccnc1 [Compound 980, 6-(3,3-difluoropyrrolidin-1-yl)-2-methyl-N-(pyridin-3-yl)imidazo[1,2-b]pyridazine-3-carboxamide] |
|  |  | ≥ 350 | COc1nccc(NC(=O)c2cnn3ccc(N4CCC[C@@H]4C(F)(F)F)nc23)n1 [Compound 1080] |
| B (EC1.5 1-25 μM) | ≥ 350 |  | O=C(Nc1ccccn1)c1cnc2ccc(N3CCC(F)(F)CC3)nn12 [Compound 927] |
|  | ≥ 350 |  | O=C(Nc1cncc(F)c1)c1cnc2ccc(N3CCCC3C(F)(F)F)nn12 (stereo not shown) [Compound 967] |
| B (EC1.5 1-25 μM) | < 350 |  | Cc1ccc(NC(=O)c2cnc3ccc(N4CC[C@H](F)C4)nn23)cn1 [Compound 920] |
|  |  | ≥ 350 | Cn1cc2ccc(NC(=O)c3cnc4ccc(N5CCCC5C(F)(F)F)nn34)cc2n1 (stereo not shown) [Compound 1092] |
|  |  | ≥ 350 | Cc1nc(NC(=O)c2c(C)nn3ccc(N4CCC[C@H]4C(F)(F)F)nc23)sc1C [Compound 1033] |
| A (EC1.5<1 μM) | ≥ 350 |  | CN(C)c1ccnc(NC(=O)c2cnc3ccc(N4CC[C@H](F)C4)nn23)n1 [Compound 923] |
|  |  | ≥ 350 | O=C(Nc1cccnc1)c1cnn2ccc(N3CCCC(C(F)(F)F)C3)nc12 (stereo not shown) [Compound 1007] |
| C (EC1.5>25 μM) | < 350 |  | Cc1cc(NC(=O)c2cnc3ccc(N4CC[C@H](F)C4)nn23)nc(C)n1 [Compound 893] |
| C (EC1.5>25 μM) | < 350 |  | O=C(Nc1cnccn1)c1cnc2ccc(N3CC(F)(F)C3)nn12 [Compound 926] |
| A (EC1.5<1 μM) | ≥ 350 |  | Cc1nc2c(OC[C@H](O)CO)cc(-c3ccccc3C(F)(F)F)nn2c1C(=O)Nc1ccccn1 [Compound 842] |
| B (EC1.5 1-25 μM) | < 350 |  | O=C(Nc1cccnc1)c1cnc2ccc(N3CC[C@H](F)C3)nn12 [Compound 837] |
|  | < 350 |  | O=C(Nc1ccncn1)c1cnc2ccc(N3CCC(F)(F)CC3)nn12 [Compound 964] |
|  | < 350 |  | O=C(Nc1cccnn1)c1cnc2ccc(N3CC[C@H](O)C3)nn12 [Compound 984] |
| B (EC1.5 1-25 μM) | < 350 |  | Cc1nc2ccc(N3CC[C@H](N(C)C)C3)nn2c1C(=O)Nc1ncccn1 [Compound 885] |
|  |  | ≥ 350 | Cc1nn2ccc(N3CCC[C@@H]3C(F)(F)F)nc2c1C(=O)Nc1ccccn1 [Compound 1070] |
|  |  | ≥ 350 | O=C(Nc1cncc(F)c1)c1cnn2ccc(N3CCC(C(F)(F)F)CC3)nc12 [Compound 1067] |
|  |  | ≥ 350 | O=C(Nc1ccccn1)c1cnn2ccc(N3CCC(C(F)(F)F)C3)nc12 (stereo not shown) [Compound 1011] |
|  | < 350 |  | O=C(Nc1ccncc1F)c1cnc2ccc(N3CCC(F)(F)CC3)nn12 [Compound 963] |
|  |  | ≥ 350 | O=C(Nc1cncc(F)c1)c1cnn2ccc(N3CCCC(C(F)(F)F)C3)nc12 (stereo not shown) [Compound 1009] |
|  | < 350 |  | CN1CCN(c2ccc3ncc(C(=O)Nc4ccc(F)cn4)n3n2)CC1 [Compound 947] |

| Trp EC1.5 (μM) (Trp assay) | Emax [1] [%] | Emax [2] [%] | SMILES |
| --- | --- | --- | --- |
|  | < 350 |  | CC1CCN(c2ccc3ncc(C(=O)Nc4ccccn4)n3n2)C1 (stereo not shown) [Compound 975] |
| C (EC1.5>25 μM) | < 350 |  | O=C(Nc1ccncc1F)c1cnc2ccc(N3CCCC3)nn12 [Compound 898] |
| A (EC1.5<1 μM) | < 350 |  | O=C(Nc1ccncc1F)c1cnc2ccc(-c3cccc(OC[C@H](O)CO)c3)nn12 [Compound 883] |
|  | ≥ 350 |  | CC1(C)CCN(c2ccc3ncc(C(=O)Nc4cccnn4)n3n2)C1 [Compound 955] |
| B (EC1.5 1-25 μM) | < 350 |  | Cc1nc2ccc(N3CC[C@H](F)C3)nn2c1C(=O)Nc1ccc(F)cn1 [Compound 844] |
|  |  | < 350 | CC1CCCN1c1ccn2ncc(C(=O)Nc3ccncn3)c2n1 (stereo not shown) [Compound 1042] |
| B (EC1.5 1-25 μM) | < 350 |  | O=C(Nc1ccc(F)cn1)c1cnc2ccc(N3CC[C@H](F)C3)nn12 [Compound 838] |
|  |  | ≥ 350 | O=C(Nc1ccncn1)c1cnn2ccc(N3CCC[C@H]3C(F)(F)F)nc12 [Compound 1025] |
|  | ≥ 350 |  | O=C(Nc1cncc(F)c1)c1cnc2ccc(N3CCC(C(F)(F)F)C3)nn12 (stereo not shown) [Compound 959] |
|  | ≥ 350 |  | C[C@@H]1CN(c2ccc3ncc(C(=O)Nc4cncc(F)c4)n3n2)C[C@H](C)O1 [Compound 997] |
|  |  | ≥ 350 | O=C(Nc1cnccn1)c1cnn2ccc(N3CCC[C@H]3C(F)(F)F)nc12 [Compound 1031] |
|  |  | ≥ 350 | CC1CCCN1c1ccn2ncc(C(=O)Nc3cccnn3)c2n1 (stereo not shown) [Compound 1040] |
|  | < 350 |  | CC1(C)CCN(c2ccc3ncc(C(=O)Nc4ccncc4F)n3n2)C1 [Compound 960] |
| B (EC1.5 1-25 μM) | < 350 |  | CO[C@H]1CCN(c2ccc3ncc(C(=O)Nc4ccccn4)n3n2)C1 [Compound 933] |
|  |  | ≥ 350 | Cc1cncc(NC(=O)c2cnn3ccc(N4CCC[C@@H]4C(F)(F)F)nc23)c1 [Compound 1077] |
| C (EC1.5>25 μM) | < 350 |  | Cc1nc2ccc(N3CC[C@H](N(C)C)C3)nn2c1C(=O)Nc1ccncn1 [Compound 881] |
|  |  | ≥ 350 | O=C(Nc1cccnn1)c1cnn2ccc(N3CCC(C(F)(F)F)C3)nc12 (stereo not shown) [Compound 1014] |
|  |  | ≥ 350 | O=C(Nc1cncc(F)c1)c1cnn2ccc(N3CCCCC3C(F)(F)F)nc12 (stereo not shown) [Compound 1010] |
|  |  | ≥ 350 | Cn1cc2ccc(NC(=O)c3cnc4ccc(N5CCC[C@@H]5C(F)(F)F)nn34)cc2n1 [Compound 1020] |
|  |  | < 350 | O=C(Nc1cncc(F)c1)c1cnn2ccc(N3CCC[C@@H]3C(F)(F)F)nc12 [Compound 1089] |
|  | < 350 |  | CC1(C)CCN(c2ccc3ncc(C(=O)Nc4cncc(F)c4)n3n2)C1 [Compound 956] |
|  |  | < 350 | Cc1cncc(NC(=O)c2cnc3ccc(N4CCC[C@@H]4C)nn23)c1 [Compound 1058] |
| A (EC1.5<1 μM) | ≥ 350 |  | Cc1cc(C)nc(NC(=O)c2c(C)nc3c(OC[C@H](O)CO)cc(-c4ccccc4C(F)(F)F)nn23)c1 [Compound 834] |
|  |  | ≥ 350 | O=C(Nc1ccccn1)c1cnn2ccc(N3CCC[C@H]3C(F)(F)F)nc12 [Compound 1029] |
